Reference: US10435388B2, “Selective inhibitors of clinically important mutants of the EGFR tyrosine kinase” (CS PHARMATECH LIMITED, priority 2016, dated 2019)
Counter-ions that a name gives are not always drawn.

What was measured:
Conditions in all cases: cellular proliferation, several runs
[1] = tested on: A431 cells (WT); experiment: A431 inhibition assay (cell proliferation), Method B; type: cell-based, human
Procedure: (§1) Cell Proliferation Assays—Method B
A431 Inhibition Assay, (Cell Proliferation).
The rest procedure was conducted in the same manner as described above for H1975 cells.

[2] = tested on: H1975 cells (DM); experiment: H1975 inhibition assay (cell proliferation), Method B; type: cell-based
Procedure: as §1
H1975 Inhibition Assay (Cell Proliferation).
(§2) Test compounds were dissolved in DMSO at 30 mM.
(§3) The final concentration was 1,000 cells/well. Add medium only as low control. […] 5% CO2 incubator for 72 hours.
(§4) After 72 hours incubation, remove the plates from incubator and equilibrate at room temperature for 15 minutes. Incubate the CellTiter Glo reagents (Promega, G9243) at 37° C. before the experiment. The buffer was equilibrated to room temperature and used to dissolve the substrate. To determine the cell viability, add 40 μL of CellTiter-Glo reagent into each well to be detected (at 1:1 to culture medium). Then the place the plates at room temperature for 30 min followed by read on EnSpire (PerkinElmer).
(§5) For estimation of IC50, the luminescence readout are transformed to % Inhibition by applying the following equation: The IC50 was then
(§6) [formula] calculated by fitting in XLFit to a four parameters logistic curve.

[3] = tested on: PC9 cells (SM); experiment: PC-9 growth inhibition assay (cell proliferation), Method B; type: cell-based, human
Procedure: as §1, §2, §3, §4, §5, §6
PC-9 Growth Inhibition Assay (Cell Proliferation).
The inhibition assay of PC-9 cells was conducted in the same manner as described above for H1975 cells.

Row | Compound | IC50 ([1]; Homo sapiens, A-431, 72 h) [nM] | IC50 ([1]; 72 h) [nM] | IC50 ([2]; Homo sapiens, NCI-H1975, 72 h) [nM] | IC50 ([2]; 72 h) [nM] | IC50 ([3]; Homo sapiens, PC-9, 72 h) [nM] | IC50 ([3]; 72 h) [nM] | IC50 ([1]; 72 h, hydrochloride) [nM] | IC50 ([2]; 72 h, hydrochloride) [nM] | IC50 ([3]; 72 h, hydrochloride) [nM]
1 | C=CC(=O)Nc1cc(Nc2nccc(-c3c[nH]c4c(=O)[nH]ccc34)n2)c(OC)cc1N(C)CCN(C)C [Example 22, N-(2-((2-(Dimethylamino)ethyl)(methyl)amino)-4-methoxy-5-((4-(7-oxo-6,7-dihydro-1H-pyrrolo[2,3-c]pyridin-3-yl)pyrimidin-2-yl)amino)phenyl) acrylamide] | 1690 | 1190 | 137 | 92.7 | 62.6 | 52.4 | – | – | –
2 | C=CC(=O)Nc1cc(Nc2ncc(Cl)c(-c3cncc(C(N)=O)c3)n2)c(OC)cc1N(C)CCN(C)C [Example 24, 5-(2-((5-Acrylamido-4-((2-(dimethylamino)ethyl)(methyl)amino)-2-methoxyphenyl)amino)-5-chloropyrimidin-4-yl)nicotinamide hydrochloride] | 6990 | – | 103 | – | 67 | – | – | – | –
3 | C=CC(=O)Nc1cc(Nc2ncc(Cl)c(-c3ccc(NC)nc3)n2)c(OC)cc1N(C)CCN(C)C [Example 25, N-(5-((5-Chloro-4-(6-(methylamino)pyridin-3-yl)pyrimidin-2-yl)amino)-2-((2-(dimethylamino)ethyl)(methyl)amino)-4-methoxyphenyl) acrylamide] | 2100 | – | 19.8 | – | 63.1 | – | – | – | –
4 | C=CC(=O)Nc1cc(Nc2ncc(Cl)c(-c3ccc(N(C)C)nc3)n2)c(OC)cc1N(C)CCN(C)C [Example 26, N-(5-((5-Chloro-4-(6-(dimethylamino)pyridin-3-yl)pyrimidin-2-yl)amino)-2-((2-(dimethylamino)ethyl)(methyl)amino)-4-methoxyphenyl) acrylamide] | 1030 | – | 25 | – | 37.3 | – | – | – | –
5 | C=CC(=O)Nc1cc(Nc2nccc(-c3cnc(NC)c(C(N)=O)c3)n2)c(OC)cc1N(C)CCN(C)C [Example 28, 5-(2-((5-Acrylamido-4-((2-(dimethylamino)ethyl)(methyl)amino)-2-methoxyphenyl)amino)pyrimidin-4-yl)-2-(methylamino)nicotinamide] | 2230 | 1710 | – | – | 22 | 26 | – | – | –
6 | C=CC(=O)Nc1cc(Nc2nccc(-n3nc(C(N)=O)c4c3CCC4)n2)c(OC)cc1N(C)CCN(C)C [Example 29, 1-(2-((5-Acrylamido-4-((2-(dimethylamino)ethyl)(methyl)amino)-2-methoxyphenyl)amino)pyrimidin-4-yl) cyclopenta[c]pyrazole-3-carboxamide] | 777 | – | 5.24 | – | 23.7 | – | – | – | –
7 | C=CC(=O)Nc1cc(Nc2nccc(-c3cc(C(N)=O)c4c(c3)c(Cl)cn4C)n2)c(OC)cc1N(C)CCN(C)C [Example 32, 5-(2-((5-Acrylamido-4-((2-(dimethylamino)ethyl)(methyl)amino)-2-methoxyphenyl)amino)pyrimidin-4-yl)-3-chloro-1N-methyl-1H-indole-7-carboxamide hydrochloride] | 1080 | – | 3.92 | – | 8.52 | – | 784 | 3.2 | 11.9
8 | C=CC(=O)Nc1cc(Nc2nccc(-c3c[nH]c(=O)c4c3ccn4C)n2)c(OC)cc1N(C)CCN(C)C [Example 33, N-(2-((2-(Dimethylamino)ethyl)(methyl)amino)-4-methoxy-5-((4-(1N-methyl-7-oxo-6,7-dihydro-1H-pyrrolo[2,3-c]pyridin-4-yl)pyrimidin-2-yl)amino)phenyl) acrylamide] | 88.5 | – | 6.33 | – | 9.9 | – | – | – | –
9 | C=CC(=O)Nc1cc(Nc2nccc(-n3nc(C(F)F)c4ccccc43)n2)c(OC)cc1N(C)CCN(C)C [Example 35, N-(5-((4-(3-(Difluoromethyl)-1H-indazol-1-yl)pyrimidin-2-yl)amino)-2-((2-(dimethylamino)ethyl)(methyl)amino)-4-methoxyphenyl) acrylamide hydrochloride] | 2020 | – | 29.4 | – | 33.3 | – | – | – | –
10 | C=CC(=O)Nc1cc(Nc2nccc(-c3cc(C)c[nH]c3=O)n2)c(OC)cc1N(C)CCN(C)C [Example 37, N-(2-((2-(Dimethylamino)ethyl)(methyl)amino)-4-methoxy-5-((4-(5-methyl-2-oxo-1,2-dihydropyridin-3-yl)pyrimidin-2-yl)amino)phenyl) acrylamide] | 588 | – | 21.9 | – | 22 | – | – | – | –
11 | C=CC(=O)Nc1cc(Nc2ncc(Cl)c(-c3c[nH]c(=O)c(C)c3)n2)c(OC)cc1N(C)CCN(C)C [Example 38, N-(5-((5-Chloro-4-(3-methyl-2-oxo-1,6-dihydropyridin-5-yl)pyrimidin-2-yl)amino)-2-((2-(dimethylamino)ethyl)(methyl)amino)-4-methoxyphenyl) acrylamide] | 1320 | – | 82 | – | 82.7 | – | – | – | –
12 | C=CC(=O)Nc1cc(Nc2nccc(-c3c[nH]c4c(C(=O)NC)cccc34)n2)c(OC)cc1N(C)CCN(C)C [Example 39, N-Methyl 3-(2-((5-acrylamido-4-((2-(dimethylamino)ethyl)(methyl)amino)-2-methoxyphenyl)amino)pyrimidin-4-yl)-1H-indole-7-carboxamide] | 42.3 | – | 0.52 | – | 0.74 | – | – | – | –
13 | C=CC(=O)Nc1cc(Nc2nccc(-c3cc(NC)cc4c3ccn4C)n2)c(OC)cc1N(C)CCN(C)C [Example 40, N-(5-(4-(1-Methyl-6-(methylamino)-1H-indol-4-yl)pyrimidin-2-ylamino)-2-(N-(2-(dimethylamino)ethyl)-N-methylamino)-4-methoxyphenyl) acrylamide] | 1880 | – | 43.5 | – | 63 | – | – | – | –

Other lines, results leading:

Row | IC50 ([1]; Homo sapiens, A-431, 72 h) [nM] | IC50 ([1]; 72 h) [nM] | IC50 ([2]; Homo sapiens, NCI-H1975, 72 h) [nM] | IC50 ([2]; 72 h) [nM] | IC50 ([3]; Homo sapiens, PC-9, 72 h) [nM] | IC50 ([3]; 72 h) [nM] | IC50 ([1]; 72 h, hydrochloride) [nM] | IC50 ([2]; 72 h, hydrochloride) [nM] | IC50 ([3]; 72 h, hydrochloride) [nM] | Compound
14 | 9070 | – | 174 | – | 475 | – | – | – | – | C=CC(=O)Nc1cc(Nc2nccc(-n3nc(NS(C)(=O)=O)c4ccccc43)n2)c(OC)cc1N(C)CCN(C)C [Example 44, N-(5-(4-(3-(N-methanesulfonylamido)-1H-indazol-1-yl)pyrimidin-2-ylamino)-2-(N-(2-(dimethylamino)ethyl)-N-methylamino)-4-methoxyphenyl) acrylamide]
15 | 253 | – | 116 | – | 21.2 | – | – | – | – | C=CC(=O)Nc1cc(Nc2nccc(-c3c[nH]c4c(-c5cc[nH]n5)cccc34)n2)c(OC)cc1N(C)CCN(C)C [Example 46, N-(5-(4-(7-(1H-Pyrazol-3-yl)-1H-indol-3-yl)pyrimidin-2-ylamino)-2-(N-(2-(dimethylamino)ethyl)-N-methylamino)-4-methoxyphenyl) acrylamide]
16 | 404 | – | 8.79 | – | 12.3 | – | – | – | – | C=CC(=O)Nc1cc(Nc2ncc(Cl)c(-c3cc(C(N)=O)cc4c3ccn4C)n2)c(OC)cc1N(C)CCN(C)C [Example 47, 4-(2-(5-Acrylamido-4-((2-(dimethylamino)ethyl)(methyl)amino)-2-methoxyphenylamino)-5-chloropyrimidin-4-yl)-1-methyl-1H-indole-6-carboxamide]
17 | 265 | – | 3.48 | – | 4.01 | – | – | – | – | C=CC(=O)Nc1cc(Nc2nccc(-c3c[nH]c4c(C(C)(C)C)cccc34)n2)c(OC)cc1N(C)CCN(C)C [Example 48, N-(5-(4-(7-t-Butyl-1H-indol-3-yl)pyrimidin-2-ylamino)-2-(N-(2-(dimethylamino)ethyl)-N-methylamino)-4-methoxyphenyl) acrylamide]
18 | 137 | – | 1.84 | – | 0.61 | – | – | – | – | C=CC(=O)Nc1cc(Nc2nccc(-n3cc(C(N)=O)c4ncccc43)n2)c(OC)cc1N(C)CCN(C)C [Example 49, 1-(2-(5-Acrylamido-4-((2-(dimethylamino)ethyl)(methyl)amino)-2-methoxyphenylamino)pyrimidin-4-yl)-1H-pyrrolo[3,2-b]pyridine-3-carboxamide]
19 | 118 | – | 7.62 | – | 14.4 | – | – | – | – | C=CC(=O)Nc1cc(Nc2nccc(-c3c[nH]c4c(N(C)C)nccc34)n2)c(OC)cc1N(C)CCN(C)C [Example 50, N-(5-(4-(7-(Dimethylamino)-1H-pyrrolo[2,3-c]pyridin-3-yl)pyrimidin-2-ylamino)-2-(N-(2-(dimethylamino)ethyl)-N-methylamino)-4-methoxyphenyl) acrylamide]
20 | 239 | – | 3.01 | – | 1.51 | – | – | – | – | C=CC(=O)Nc1cc(Nc2nccc(-n3cc(C(=O)NC)c4ncccc43)n2)c(OC)cc1N(C)CCN(C)C [Example 51, N-Methyl 1-(2-(5-acrylamido-4-((2-(dimethylamino)ethyl)(methyl)amino)-2-methoxyphenylamino)pyrimidin-4-yl)-1H-pyrrolo[3,2-b]pyridine-3-carboxamide]
21 | 325 | – | 4.06 | – | 17.2 | – | – | – | – | C=CC(=O)Nc1cc(Nc2ncc(Cl)c(-n3nc(NC)c4ccccc43)n2)c(OC)cc1N(C)CCN(C)C [Example 52, N-(5-(5-Chloro-4-(3-(methylamino)-1H-indazol-1-yl)pyrimidin-2-ylamino)-2-(N-(2-(dimethylamino)ethyl)-N-methylamino)-4-methoxyphenyl) acrylamide]
